Data reported in patent US12060387B2, “Polypeptide-based shuttle agents for improving the transduction efficiency of polypeptide cargos to the cytosol of target eukaryotic cells, uses thereof, methods and kits relating to same” (priority 2015, dated 2024).
Read-outs that look alike come from different tables or passages of the source. Where a SMILES comes first, the peptide text is derived from it. Bridges are numbered along the chain shown (N, C = ends). Roman numbers before positions name the chains, in order. Where no end group is shown, it is not given here.

Key:
[1] = Cell toxicity / % cell viability by flow cytometry (cells in total events v. untreated); type: cell-based, Human; conditions: human, HeLa cells; for viability at 1 min, 20 µM: FIG. 29I, shuttle 20 μM, 1 minute; for viability at 1 h, 3.5 µM: antibody 0.5 μM, shuttle 3.5 μM, read-out: Cell viability (%) (± St. Dev.; n = 3), FIG. 19B
From the text: (§1) The fluorescence of GFP was quantified using flow cytometry (Accuri C6, Becton, Dickinson and Company (BD)). Untreated cells were used to establish a baseline in order to quantify the increased fluorescence due to the internalization of the fluorescent protein in treated cells. The percentage of cells with a fluorescence signal above the maximum fluorescence of untreated cells, “mean %” or “Pos cells (%)”, is used to identify positive fluorescent cells. “Relative fluorescence intensity (FL1-A)” corresponds to the mean of all fluorescence intensities from each cell with a fluorescent signal after fluorescent protein delivery with the shuttle agent. Also, the events scanned by flow cytometry corresponding to cells (size and granularity) were analyzed. The cellular toxicity (% cell viability) was monitored comparing the percentage of cells in the total events scanned of treated cells comparatively to untreated cells.

HeLa cells = experiment: as above; type: cell-based, Human; conditions: HeLa, Protocol B
From the text: as §1

[2] = as above; type: cell-based, human; conditions: human, THP-1 cells
From the text: as §1

[3] = Cell viability (%) (±St. Dev.; n = 3), HeLa, Protocol B, GFP-NLS 5 μM, read-out: Cell viability (%) (±St. Dev.; n = 3)
[4] = shuttle 50 μM, GFP-NLS 5 μM, 10 seconds
[5] = Cell viability (%) (±St. Dev.; n = 3), FIG. 29A, HeLa, Protocol B, shuttle 50 μM, GFP-NLS 5 μM, 10 seconds, read-out: Cell viability (%) (±St. Dev.; n = 3), FIG. 29A
[6] = Cell viability (%) (±St. Dev.; n = 3), FIG. 29F, read-out: Cell viability (%) (±St. Dev.; n = 3), FIG. 29F

CC[C@H](C)[C@H](NC(=O)[C@H](CCCCN)NC(=O)[C@H](CCCCN)NC(=O)[C@H](Cc1ccccc1)NC(=O)[C@H](CC(C)C)NC(=O)[C@H](CCCCN)NC(=O)[C@H](Cc1c[nH]c2ccccc12)NC(=O)[C@H](CCCCN)NC(=O)[C@H](Cc1c[nH]cn1)NC(=O)[C@H](C)NC(=O)[C@H](Cc1c[nH]cn1)NC(=O)[C@H](Cc1c[nH]cn1)NC(=O)[C@H](C)NC(=O)[C@H](Cc1c[nH]cn1)NC(=O)[C@H](Cc1c[nH]cn1)NC(=O)[C@H](C)NC(=O)[C@@H](N)Cc1c[nH]cn1)C(=O)NCC(=O)N[C@@H](C)C(=O)N[C@H](C(=O)N[C@@H](CC(C)C)C(=O)N[C@@H](CCCCN)C(=O)N[C@H](C(=O)N[C@@H](CC(C)C)C(=O)N[C@H](C(=O)N[C@H](C(=O)NCC(=O)N[C@@H](Cc1ccc(O)cc1)C(=O)N[C@@H](C)C(=O)N[C@@H](CCCNC(=N)N)C(=O)N[C@@H](C)C(=O)N[C@@H](C)C(=O)N[C@@H](C)C(=O)N[C@@H](CCCNC(=N)N)C(=O)N[C@@H](CCC(N)=O)C(=O)N[C@@H](C)C(=O)N[C@@H](CCCNC(=N)N)C(=O)N[C@@H](C)C(=O)O)[C@@H](C)O)[C@@H](C)O)C(C)C)C(C)C [3HA-CM18-PTD4]
viability at 1 min, 20 µM [1, 3]: 43.6 ± 2.8%

YGRKKRRQRRRCKWKLFKKIGAVLKVLTTG [TAT-CM18]
Cell viability (%) (±St. Dev.; n = 3), FIG. 29F (HeLa cells; [4]): 23.5 ± 1.1% | viability at 10 s, 50 µM [1, 5]: 23.5 ± 1.1%

CC(C)C[C@H](NC(=O)[C@H](CC(C)C)NC(=O)[C@H](CCCCN)NC(=O)[C@H](CCCCN)NC(=O)[C@H](CC(C)C)NC(=O)[C@H](CC(C)C)NC(=O)[C@H](CCCCN)NC(=O)[C@H](CCCCN)NC(=O)[C@H](CC(C)C)NC(=O)[C@H](CC(C)C)NC(=O)[C@H](CS)NC(=O)[C@H](Cc1c[nH]cn1)NC(=O)[C@H](Cc1c[nH]cn1)NC(=O)[C@H](Cc1c[nH]cn1)NC(=O)[C@H](Cc1c[nH]cn1)NC(=O)[C@H](Cc1c[nH]cn1)NC(=O)[C@@H](N)Cc1c[nH]cn1)C(=O)N[C@@H](CCCCN)C(=O)N[C@@H](CCCCN)C(=O)N[C@@H](CS)C(=O)N[C@@H](Cc1ccc(O)cc1)C(=O)N[C@@H](C)C(=O)N[C@@H](CCCNC(=N)N)C(=O)N[C@@H](C)C(=O)N[C@@H](C)C(=O)N[C@@H](C)C(=O)N[C@@H](CCCNC(=N)N)C(=O)N[C@@H](CCC(N)=O)C(=O)N[C@@H](C)C(=O)N[C@@H](CCCNC(=N)N)C(=O)N[C@@H](C)C(=O)O [His-C(LLKK)3C-PTD4] (H-HHHHHHCLLKKLLKKLLKKCYARAAARQARA-OH)
viability at 15 s, 1 µM [2]: 85.2 ± 2.8% | viability at 0.5 min, 1 µM [2]: 86 ± 2% | viability at 1 min, 1 µM [2]: 86.9 ± 3.8% | viability at 2 min, 1 µM [2]: 79.6 ± 2.8% | viability at 24 h, 0.8 µM [2]: 97.2 ± 2.2% | viability at 72 h, 0.8 µM [2]: 76.6 ± 3.4% | viability at 10 s, 50 µM [1]: 95 ± 2.7% | viability at 1 min, 10 µM [1]: 99.5 ± 2.7% | viability at 2 min, 10 µM [1]: 94.3 ± 3.2% | viability at 5 min, 10 µM [1]: 80.8 ± 4.4%

KWKLFKKIGAVLKVLTTGGGSYARAAARQARA [CM18-L1-PTD4]
effect of the variation of the shuttle on cell viability (in words) (HeLa cells; GFP-NLS 5 μM with 20 μM shuttle variant, 1 minute): increased cell viability | viability at 1 min, 20 µM [1, 3]: 50.1 ± 3.8%

CC(C)C[C@H](NC(=O)[C@H](CC(C)C)NC(=O)[C@H](CCCCN)NC(=O)[C@H](CCCCN)NC(=O)[C@H](CC(C)C)NC(=O)[C@H](CC(C)C)NC(=O)[C@H](CCCCN)NC(=O)[C@H](CCCCN)NC(=O)[C@H](CC(C)C)NC(=O)[C@H](CC(C)C)NC(=O)[C@@H](N)CS)C(=O)N[C@@H](CCCCN)C(=O)N[C@@H](CCCCN)C(=O)N[C@@H](CS)C(=O)O [C(LLKK)3C, reference compound] (H-CLLKKLLKKLLKKC-OH)
viability at 10 s, 50 µM [1]: 61.8 ± 0.1%

HHHHHHKWKLFKKIGAVLKVLTTGYARAAARQARAHHHHHH [His-CM18-PTD4-His]
viability at 1 min, 10 µM ([1]; Cell viability (%) (±St. Dev.; n = 3), FIG. 29G, HeLa, Protocol B, shuttle 10 μM, GFP-NLS 5 μM, incubation 1 min, read-out: Cell viability (%) (±St. Dev.; n = 3), FIG. 29G): 68.1 ± 2.7% | viability at 2 min, 10 µM ([1]; Cell viability (%) (±St. Dev.; n = 3), FIG. 29G, HeLa, Protocol B, shuttle 10 μM, GFP-NLS 5 μM, incubation 2 min, read-out: Cell viability (%) (±St. Dev.; n = 3), FIG. 29G): 61.6 ± 3.2% | viability at 5 min, 10 µM ([1]; Cell viability (%) (±St. Dev.; n = 3), FIG. 29G, HeLa, Protocol B, shuttle 10 μM, GFP-NLS 5 μM, incubation 5 min, read-out: Cell viability (%) (±St. Dev.; n = 3), FIG. 29G): 41.2 ± 4.4% | viability at 1 min, 20 µM [1, 3]: 78.6 ± 1.1%

HHHHHHKWKLFKKIGAVLKVLTTGRRRRRRRRR [His-CM18-9Arg]
Cell viability (%) (±St. Dev.; n = 3), FIG. 29E (HeLa cells; [4]): 45.8 ± 3.53% | viability at 10 s, 50 µM [1, 5]: 45.8 ± 5.4%

RRLSYSRRRFWEAKLAKALAKALAKHLAKALAKALKACEA [SynB3-KALA]
viability at 10 s, 50 µM [1, 6]: 91.1 ± 0.82%

HHHAHHHKWKLFKKIGAVLKVLTTGYARAAARQARA [HA-CM18-PTD4]
viability at 1 min, 20 µM [1, 3]: 68.3 ± 4.1%

KWKLFKKIGAVLKVLTTG [CM18, reference compound]
viability at 10 s, 50 µM ([1]; Cell viability (%) (±St. Dev.; n = 3), FIG. 29D, HeLa, Protocol B, peptide 50 μM, GFP-NLS 5 μM, 10 seconds, read-out: Cell viability (%) (±St. Dev.; n = 3), FIG. 29D): 95 ± 1.2%

N=C(N)NCCC[C@H](NC(=O)CNC(=O)[C@@H](N)Cc1ccc(O)cc1)C(=O)N[C@@H](CCCCN)C(=O)N[C@@H](CCCCN)C(=O)N[C@@H](CCCNC(=N)N)C(=O)N[C@@H](CCCNC(=N)N)C(=O)N[C@@H](CCC(N)=O)C(=O)N[C@@H](CCCNC(=N)N)C(=O)N[C@@H](CCCNC(=N)N)C(=O)N[C@@H](CCCNC(=N)N)C(=O)N[C@@H](CS)C(=O)O [TAT-Cys, reference compound]
viability at 10 s, 50 µM ([1]; HeLa, Protocol B, peptide 50 μM, GFP-NLS 5 μM, 10 seconds, read-out: Cell viability (%) (±St. Dev.; n = 3), FIG. 29D): 94.6 ± 0.44%

LIRLWSHLIHIWFQNRRLKWKKKYARAAARQARA [EB1-PTD4]
viability at 10 s, 50 µM [1]: 39 ± 5.6% | viability at 1 min, 10 µM [1]: 61.7 ± 2.7% | viability at 2 min, 10 µM [1]: 56.6 ± 3.2% | viability at 5 min, 10 µM [1]: 55.8 ± 4.4%

KWKLFKKIGAVLKVLTTGRQIKIWFQNRRMKWKKC [CM18-Penetratin-Cys]
viability at 1 h, 3.5 µM ([1]; HeLa): 73 ± 9.5%

MHHHHHHKWKLFKKIGAVLKVLTTGYGRKKRRQRRRC [Met-His-CM18-TAT-Cys]
viability at 10 s, 50 µM ([1]; Cell viability (%) (±St. Dev.; n = 3), FIG. 29E, HeLa, Protocol B, shuttle 50 μM, GFP-NLS 5 μM, 10 seconds, read-out: Cell viability (%) (±St. Dev.; n = 3), FIG. 29E): 41.4 ± 3.91%

GLFEALLELLESLWELLLEAYARAAARQARA [JST-PTD4]
viability at 10 s, 50 µM ([1]; Cell viability (%) (±St. Dev.; n = 3), FIG. 29E, read-out: Cell viability (%) (±St. Dev.; n = 3), FIG. 29E): 98.9 ± 0.57%

HHHHHHKKALLALALHHLAHLALHLALALKKAYARAAARQARA [His-LAH4-PTD4]
viability at 10 s, 50 µM ([1]; HeLa, Protocol B, shuttle 50 μM, GFP-NLS 5 μM, 10 seconds, read-out: Cell viability (%) (±St. Dev.; n = 3), FIG. 29A): 98 ± 1.5%

CC[C@H](C)[C@H](NC(=O)[C@@H](NC(=O)[C@H](Cc1ccccc1)NC(=O)[C@@H](N)CCCCN)[C@@H](C)O)C(=O)N[C@H](C(=O)N[C@@H](Cc1ccccc1)C(=O)N1CCC[C@H]1C(=O)N[C@@H](Cc1c[nH]cn1)C(=O)N[C@@H](CC(N)=O)C(=O)N[C@@H](CCC(N)=O)C(=O)N[C@@H](CCCCN)C(=O)NCC(=O)N[C@@H](CC(N)=O)C(=O)N[C@@H](Cc1c[nH]c2ccccc12)C(=O)N[C@@H](CCCCN)C(=O)N[C@@H](CC(N)=O)C(=O)N[C@H](C(=O)N1CCC[C@H]1C(=O)N[C@@H](CO)C(=O)N[C@@H](CC(N)=O)C(=O)N[C@@H](Cc1ccc(O)cc1)C(=O)N[C@@H](Cc1c[nH]cn1)C(=O)N[C@@H](Cc1ccc(O)cc1)C(=O)N[C@@H](CS)C(=O)N1CCC[C@H]1C(=O)N[C@@H](Cc1ccc(O)cc1)C(=O)N[C@@H](C)C(=O)N[C@@H](CCCNC(=N)N)C(=O)N[C@@H](C)C(=O)N[C@@H](C)C(=O)N[C@@H](C)C(=O)N[C@@H](CCCNC(=N)N)C(=O)N[C@@H](CCC(N)=O)C(=O)N[C@@H](C)C(=O)N[C@@H](CCCNC(=N)N)C(=O)N[C@@H](C)C(=O)O)C(C)C)C(C)C [VSVG-PTD4]
viability at 10 s, 50 µM ([1]; HeLa, Protocol B, shuttle 50 μM, GFP-NLS 5 μM, 10 seconds, read-out: Cell viability (%) (±St. Dev.; n = 3), FIG. 29E): 100%

HHHHHHYARAAARQARA [His-PTD4, reference compound]
viability at 10 s, 50 µM [1]: 96.5 ± 0.28%

RRRRRRRRRWEAKLAKALAKALAKHLAKALAKALKACEA [9Arg-KALA]
viability at 10 s, 50 µM [1, 6]: 62.8 ± 5.11%

I: KWKLFKKIGAVLKVLTTGRQIKIWFQNRRMKWKKC / II: KWKLFKKIGAVLKVLTTGRQIKIWFQNRRMKWKKC (disulfide I:35-II:35) [dCM18-Penetratin-Cys]
viability at 1 h, 3.5 µM ([1]; HeLa): 74 ± 9%

HHHHHHHHHHHHKWKLFKKIGAVLKVLTTGYARAAARQARA [12His-CM18-PTD4]
viability at 1 min, 20 µM [1, 3]: 33.4 ± 4.3%

HHHKWKLFKKIGAVLKVLTTGYARAAARQARA [3His-CM18-PTD4]
viability at 1 min, 20 µM [1, 3]: 39.2 ± 3.3%

YARAAARQARA [PTD4, reference compound]
viability at 10 s, 50 µM ([1]; Cell viability (%) (±St. Dev.; n = 3), FIG. 29D, read-out: Cell viability (%) (±St. Dev.; n = 3), FIG. 29D): 94 ± 4.5%

KWKLFKKIGAVLKVLTTGHHHHHHYARAAARQARA [CM18-His-PTD4]
viability at 1 min, 20 µM [1, 3]: 57.7 ± 4.2%

WEAKLAKALAKALAKHLAKALAKALKACEA [KALA, reference compound]
viability at 10 s, 50 µM [1]: 84 ± 0.7%
